# Laboratory results: patent publication US20220041559A1, “BENZO-AND PYRIDO-PYRAZOLES AS PROTEIN KINASE INHIBITORS” (ROTTAPHARM BIOTECH S.R.L., priority 2019, published 2022)
# Molecular target: T1, FYN (Homo sapiens, UniProt P06241)
# T1 construct: purchased CarnaBioscience
# Experiment: Z'-LYTE in vitro kinase assay, FYN kinase inhibition
# Type: biochemical
# Conditions: Table 17
# Experimental: Assays to determine the kinase inhibitory activity of compounds were performed using an automatic liquid handling device (Microlab STAR Hamilton) and Z′-LYTE™ Kinase Assay Platform (Invitrogen), a Fluorescence Resonance Energy Transfer (FRET)-based assay platform compatible with high-throughput screening (HTS) applications. The assay employs a fluorescence-based, coupled-enzyme format and utilizes the differential sensitivity of phosphorylated and non-phosphorylated peptides to proteolytic cleavage.
# Test compounds were evaluated towards active FYN (CarnaBioscience). The enzyme was incubated in a 384 low-volume microplate with a synthetic peptide-substrate, ATP and different inhibitor concentrations, ranging from 10^−10 M up to 10^−5 M final concentration. Samples representing the 0% inhibition (or total enzymatic activity) were in the presence of compound diluent (1% DMSO final) in Reaction Buffer (50 mM Hepes, 10 mM MgCl2, 1 mM EGTA, 0.01% Brij-35, pH 7.5).
# A near-Km ATP concentrations for the kinase and an optimal enzyme concentration that phosphorylates 20-40% of the Z′-LYTE™ Tyr 2 Peptide in a one-hour incubation, were selected. All reagents were diluted in reaction buffer and the kinase reaction was carried out in a total volume of 10 μl, for 60 minutes at 25° C. The 0% Phosphorylation (i.e. no ATP) and 100% Phosphorylation (i.e. synthetically phosphorylated peptide supplied) Assay Controls, included in each plate, allowed to calculate the percent phosphorylation achieved in the specific reaction well. The 0% Inhibition and 0% Phosphorylation (i.e. 100% Inhibition) Controls define the dynamic range in the screen. At the end of incubation, a secondary reaction (the Development Reaction) started by adding 5 μl of Development Reagent, containing a site-specific protease that recognizes and cleaves non-phosphorylated peptides, and was interrupted after 60 minutes with 5 μl/sample of Stop Reagent. Measurement of the Coumarin (Ex. 400 nm, Em. 460 nm) and Fluorescein (Ex. 400 nm, Em. 535 nm) emission signals were performed by a fluorescence plate reader (Envision, PerkinElmer).
# Results are expressed as percentage of inhibition and the IC50 values were calculated by non-linear curve fitting using GraphPad™ Prism software.
# T1 sequence (P06241 whole entry): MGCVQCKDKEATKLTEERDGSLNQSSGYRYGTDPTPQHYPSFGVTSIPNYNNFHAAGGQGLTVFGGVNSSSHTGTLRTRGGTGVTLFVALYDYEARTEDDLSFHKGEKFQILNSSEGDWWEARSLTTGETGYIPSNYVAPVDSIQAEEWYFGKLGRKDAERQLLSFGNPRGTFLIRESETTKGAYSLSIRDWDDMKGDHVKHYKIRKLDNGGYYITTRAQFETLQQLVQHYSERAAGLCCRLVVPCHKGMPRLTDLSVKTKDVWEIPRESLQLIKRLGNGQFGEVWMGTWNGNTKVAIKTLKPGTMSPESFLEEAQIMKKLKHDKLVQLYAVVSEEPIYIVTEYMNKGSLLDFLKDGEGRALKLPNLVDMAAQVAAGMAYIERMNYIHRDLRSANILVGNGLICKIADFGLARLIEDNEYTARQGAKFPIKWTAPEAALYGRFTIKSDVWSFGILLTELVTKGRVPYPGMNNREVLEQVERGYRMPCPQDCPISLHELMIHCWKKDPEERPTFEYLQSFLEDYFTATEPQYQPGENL
row,Structure (SMILES),"FYN kinase inhibition, result in words"
1,"Cc1cccc(F)c1Nc1ccc2c(NC(=O)c3ccc(C4CCN(C)CC4)cc3)n[nH]c2c1 [Compound 11, N-(6-((2-fluoro-6-methylphenyl)amino)-1H-indazol-3-yl)-4-(1-methylpiperidin-4-yl)benzamide]",more active
2,"CN1CCC(c2ccc(C(=O)Nc3n[nH]c4cc(Nc5c(F)ccc6c5OCO6)ccc34)cc2)CC1 [Compound 15, N-(6-((5-fluorobenzo[d][1,3]dioxol-4-yl)amino)-1H-indazol-3-yl)-4-(1-methylpiperidin-4-yl)benzamide]",more active

# Same assay, conditions: near-Km ATP, 60 minutes at 25° C.
row,Structure (SMILES),IC50 [nM]
1,"CN1CCC(c2ccc(C(=O)Nc3n[nH]c4cc(Nc5ccccc5F)ccc34)cc2OCC2COC2)CC1 [Compound 42, N-(6-((2-fluorophenyl)amino)-1H-indazol-3-yl)-4-(1-methylpiperidin-4-yl)-3-(oxetan-3-ylmethoxy)benzamide]",204
2,"CN1CCC(Oc2ccc(C(=O)Nc3n[nH]c4cc(Nc5ccccc5F)ccc34)cc2)CC1 [Compound 35, N-(6((2-fluorophenyl)amino)-1H-indazol-3-yl)-4((1-methylpiperidin-4-yl)oxy)benzamide]",145
3,"CN1CCCC(Oc2ccc(C(=O)Nc3n[nH]c4cc(Nc5ccccc5F)ccc34)cc2)C1 (single isomer, unassigned) [Compound 40]",548
4,"Cc1cccc(F)c1Nc1ccc2c(NC(=O)c3ccc(C4CCN(C)CC4)cc3)n[nH]c2c1 [Compound 11, N-(6-((2-fluoro-6-methylphenyl)amino)-1H-indazol-3-yl)-4-(1-methylpiperidin-4-yl)benzamide]",47
5,"Cc1cccc(F)c1Nc1ccc2c(NC(=O)c3ccc(C4CCN(C)CC4)cc3)n[nH]c2n1 [Compound 21, N-(6-((2-fluoro-6-methylphenyl)amino)-1H-pyrazolo[3,4-b]pyridin-3-yl)-4-(1-methylpiperidin-4-yl)benzamide]",442
6,"COc1ccc(Nc2ccc3c(NC(=O)c4ccc(C5CCN(C)CC5)cc4)n[nH]c3n2)cc1 [Compound 31, N-(6-((4-methoxyphenyl)amino)-1H-pyrazolo[3,4-b]pyridin-3-yl)-4-(1-methylpiperidin-4-yl)benzamide]",589
7,"CN1CCC(c2ccc(C(=O)Nc3n[nH]c4nc(Nc5ccccc5Cl)ccc34)cc2)CC1 [Compound 26, N-(6-((2-chlorophenyl)amino)-1H-pyrazolo[3,4-b]pyridin-3-yl)-4-(1-methylpiperidin-4-yl)benzamide]",260
8,"CN1CCC(c2ccc(C(=O)Nc3n[nH]c4cc(Nc5cccc(F)c5)ccc34)cc2)CC1 [Compound 19, N-(6-((3-fluorophenyl)amino)-1H-indazol-3-yl)-4-(1-methylpiperidin-4-yl)benzamide]",258
9,"CN1CCCC(Oc2ccc(C(=O)Nc3n[nH]c4cc(Nc5ccccc5F)ccc34)cc2)C1 (stereo not drawn) [Compound 38, N-(6((2-fluorophenyl)amino)-1H-indazol-3-yl)-4((1-methylpiperidin-3-yl)oxy)benzamide]",283
10,"CN1CC[C@@H](c2ccc(C(=O)Nc3n[nH]c4cc(Nc5ccccc5F)ccc34)cc2)[C@@H](F)C1 (single isomer, unassigned) [Compound 3]",307
11,"O=C(Nc1n[nH]c2cc(Nc3ccccc3F)ccc12)c1ccc(N2CCOCC2)cc1 [Compound 36, N-(6((2-fluorophenyl)amino)-1H-indazol-3-yl)-4-morpholinobenzamide]",370
12,"CN1CCN(c2ccc(C(=O)Nc3n[nH]c4cc(Nc5ccccc5F)ccc34)cc2)CC1 [Compound 34, N-(6-((2-fluorophenyl)amino)-1H-indazol-3-yl)-4-(4-methylpiperazin-1-yl)benzamide]",147
13,"CN1CCCC(Oc2ccc(C(=O)Nc3n[nH]c4cc(Nc5ccccc5F)ccc34)cc2)C1 (single isomer, unassigned) [Compound 41]",374
14,"Cc1cccc(Cl)c1Nc1ccc2c(NC(=O)c3ccc(C4CCN(C)CC4)cc3)n[nH]c2c1 [Compound 13, N-(6-((2-choro-6-methylphenyl)amino)-1H-indazol-3-yl)-4-(1-methylpiperidin-4-yl)benzamide]",207
15,"CN1CCC(c2ccc(C(=O)Nc3n[nH]c4cc(Nc5ccccc5F)ccc34)c(NC3CCOCC3)c2)CC1 [Compound 53, N-(6-((2-fluorophenyl)amino)-1H-indazol-3-yl)-4-(1-methylpiperidin-4-yl)-2-((tetrahydro-2H-pyran-4-yl)amino)benzamide]",201
16,"CN1CCC(c2ccc(C(=O)Nc3n[nH]c4cc(Nc5ccc(F)cc5Cl)ccc34)cc2)CC1 [Compound 9, N-(6-((2-chloro-4-fluorophenyl)amino)-1H-indazol-3-yl)-4-(1-methylpiperidin-4-yl)benzamide]",388
17,"CN1CCC(c2ccc(C(=O)Nc3n[nH]c4nc(Nc5c(F)ccc6c5OCO6)ccc34)cc2)CC1 [Compound 49, N-(6((5-fluorobenzo[d][1,3]dioxol-4-yl)amino)-1H-pyrazolo[3,4-b]pyridin-3-yl)-4-(1-methylpiperidin-4-yl)benzamide]",831
18,"CN1CCC(c2ccc(C(=O)Nc3n[nH]c4nc(Nc5ccc(F)cc5F)ccc34)cc2)CC1 [Compound 22, N-(6-((2,4-difluorophenyl)amino)-1H-pyrazolo[3,4-b]pyridin-3-yl)-4-(1-methylpiperidin-4-yl)benzamide]",283
19,"CN1CCC(c2ccc(C(=O)Nc3n[nH]c4cc(Nc5ccccc5C(F)(F)F)ccc34)cc2)CC1 [Compound 10, 4-(1-methylpiperidin-4-yl)-N-(6-((2-(trifluoromethyl)phenyl)amino)-1H-indazol-3-yl)benzamide]",650
20,"Cc1ccc(Nc2ccc3c(NC(=O)c4ccc(C5CCN(C)CC5)cc4)n[nH]c3c2)cc1 [Compound 18, 4-(1-methylpiperidin-4-yl)-N-(6-(p-tolyamino)-1H-indazol-3-yl)benzamide]",105
21,"CC(C)N1CCC(c2ccc(C(=O)Nc3n[nH]c4nc(Nc5ccccc5F)ccc34)cc2)CC1 [Compound 24, N-(6-((2-fluorophenyl)amino)-1H-pyrazolo[3,4-b]pyridin-3-yl)-4-(1-isopropylpiperidin-4-yl)benzamide]",209
22,"CN1CCC(c2ccc(C(=O)Nc3n[nH]c4cc(Nc5ccc(Cl)cc5F)ccc34)cc2)CC1 [Compound 12, N-(6-((4-chloro-2-fluorophenyl)amino)-1H-indazol-3-yl)-4-(1-methylpiperidin-4-yl)benzamide]",220
23,"CCc1cccc(F)c1Nc1ccc2c(NC(=O)c3ccc(C4CCN(C)CC4)cc3)n[nH]c2c1 [Compound 2, N-(6-((2-ethyl-6-fluorophenyl)amino)-1H-indazol-3-yl)-4-(1-methylpiperidin-4-yl)benzamide]",315
24,"O=C(Nc1n[nH]c2cc(Nc3ccccc3F)ccc12)c1ccc(C2CCN(C3COC3)CC2)cc1 [Compound 7, N-(6-((2-fluorophenyl)amino)-1H-indazol-3-yl)-4-(1-(oxetan-3-yl)piperidin-4-yl)benzamide]",468
25,"CN1CCC(c2ccc(C(=O)Nc3n[nH]c4cc(Nc5c(F)ccc6c5OCO6)ccc34)cc2)CC1 [Compound 15, N-(6-((5-fluorobenzo[d][1,3]dioxol-4-yl)amino)-1H-indazol-3-yl)-4-(1-methylpiperidin-4-yl)benzamide]",19
26,"CN1CC[C@@H](c2ccc(C(=O)Nc3n[nH]c4cc(Nc5ccccc5F)ccc34)cc2)[C@@H](F)C1 (single isomer, unassigned) [Compound 4]",203
27,"CN1CCC(c2ccc(C(=O)Nc3n[nH]c4cc(Nc5ccc(F)cc5F)ccc34)cc2)CC1 [Compound 16, N-(6-((2,4-difluorophenyl)amino)-1H-indazol-3-yl)-4-(1-methylpiperidin-4-yl)benzamide]",97
28,"COc1ccccc1Nc1ccc2c(NC(=O)c3ccc(C4CCN(C)CC4)cc3)n[nH]c2n1 [Compound 27, N-(6-((2-methoxyphenyl)amino)-1H-pyrazolo[3,4-b]pyridin-3-yl)-4-(1-methylpiperidin-4-yl)benzamide]",538
